Ends that are not written are not given here.
Test system: hPSCs
Assay: RT-qPCR of pluripotency and germ-layer markers during differentiation with CPP-peptides (Supplementary Fig. 7b-e)
Format: cell-based, human
Conditions: for GATA4 (RT-qPCR) / SOX17 (RT-qPCR): Fig. s7e
Procedure: For CPP-conjugated peptide delivery, HeLa, 293T, and PA-1 cells were incubated with CPP-conjugated peptides or CPP-FITC at 2 μM in DMEM with 10% FBS for 12 h a day before cell harvest. hPSCs were treated with CPP-conjugated peptides at 10 μM in mTeSR Plus Medium, and the peptide-containing medium was changed every day over 10 days. The ROCK inhibitor (Tocris Bioscience, Y-27632) treated-hPSCs were dissociated into single cells using Accutase (Merck, SCR005) and differentiated into ectoderm, mesoderm, and endoderm using the STEMdiff Trilineage Differentiation Kit ([…] Technologies, 05230) following the manufacturer’s protocol. Differentiated cells treated with CPP-conjugated peptides were analysed at 0, 3, and 5 days for ectoderm and endoderm, and at 0, 3, and 4 days for mesoderm. […]
cDNA was synthesised using RevertAid Reverse Transcriptase (Thermo Fisher Scientific, EP0441) with synthesised random hexamer (Macrogen) for total RNA or stem-loop primers for miRNA. For RT-qPCR reactions, the SensiFAST SYBR No-ROX kit (Meridian Bioscience) was used according to the manufacturer’s protocol. All data analysis and visualisation were conducted using R 3.6.1 [www.r-project.org] or GraphPad Prism 10. RT primers for miRNA and RT-qPCR primer sequences are provided in Supplementary Data 6. […]
FPKM of each gene was presented f r om RNA-seq analysis. b–e hPSCs wer e treated with the indicated peptide during each germ la ye r differentiation. […]
An unpaired Student’s t-test was used for a–e. Data are presented as mean values ± SEM. All statistical test us ed wer e two-s ided. T he m inim um number of independent biological replicate experim ents was a–f n = 3. T he experiments wer e conducted three tim es, each iteration producing consistent results.

[1] = Fig. s7d, day 3, mean of 3 replicates
[2] = Fig. s7d, day 4, mean of 3 replicates

Sequence: KKKWCRKKKSSADEKRYRALKRTAERELLMNA [P8]
- CXCR4 mRNA level (RT-qPCR) (Fig. s7d, Day 3, replicate 2): 774.595
- SNAI1 mRNA level (RT-qPCR) (Fig. s7d, Day 3, replicate 2): 13.1184
- TBXT mRNA level (RT-qPCR) (Fig. s7d, Day 3, replicate 2): 4302.87
- BMP2 mRNA level (RT-qPCR) (Fig. s7d, Day 3, replicate 3): 1.333
- BMP4 mRNA level (RT-qPCR) (Fig. s7d, Day 3, replicate 3): 53.6277
- CDH2 mRNA level (RT-qPCR) (Fig. s7d, Day 3, replicate 3): 17.5345
- CXCR4 mRNA level (RT-qPCR) (Fig. s7d, Day 3, replicate 3): 641.469
- SNAI1 mRNA level (RT-qPCR) (Fig. s7d, Day 3, replicate 3): 12.7742
- TBXT mRNA level (RT-qPCR) (Fig. s7d, Day 3, replicate 3): 4804.52
- BMP2 mRNA level (RT-qPCR) (Fig. s7d, Day 4, replicate 1): 0.2478
- BMP4 mRNA level (RT-qPCR) (Fig. s7d, Day 4, replicate 1): 31.2396
- CDH2 mRNA level (RT-qPCR) (Fig. s7d, Day 4, replicate 1): 14.5509
- CXCR4 mRNA level (RT-qPCR) (Fig. s7d, Day 4, replicate 1): 668.803
- SNAI1 mRNA level (RT-qPCR) (Fig. s7d, Day 4, replicate 1): 16.3401
- TBXT mRNA level (RT-qPCR) (Fig. s7d, Day 4, replicate 1): 2083
- BMP2 mRNA level (RT-qPCR) (Fig. s7d, Day 4, replicate 2): 0.261
- BMP4 mRNA level (RT-qPCR) (Fig. s7d, Day 4, replicate 2): 27.7899
- CDH2 mRNA level (RT-qPCR) (Fig. s7d, Day 4, replicate 2): 13.2223
- CXCR4 mRNA level (RT-qPCR) (Fig. s7d, Day 4, replicate 2): 587.806
- SNAI1 mRNA level (RT-qPCR) (Fig. s7d, Day 4, replicate 2): 17.9864
- TBXT mRNA level (RT-qPCR) (Fig. s7d, Day 4, replicate 2): 2236.13
- BMP2 mRNA level (RT-qPCR) (Fig. s7d, Day 4, replicate 3): 0.2852
- BMP4 mRNA level (RT-qPCR) (Fig. s7d, Day 4, replicate 3): 35.8542
- CDH2 mRNA level (RT-qPCR) (Fig. s7d, Day 4, replicate 3): 15.5934
- CXCR4 mRNA level (RT-qPCR) (Fig. s7d, Day 4, replicate 3): 589.372
- SNAI1 mRNA level (RT-qPCR) (Fig. s7d, Day 4, replicate 3): 18.1009
- TBXT mRNA level (RT-qPCR) (Fig. s7d, Day 4, replicate 3): 2648.18
- SNAI1 difference between means (P8 - P1) ± SEM (Fig. s7d, day 3, P8 vs. P1): -10.01 ± 2.987
- SNAI1 difference between means, 95% confidence interval (Fig. s7d, day 3, P8 vs. P1): -18.30 to -1.717
- TBXT difference between means (P8 - P1) ± SEM (Fig. s7d, day 3, P8 vs. P1): -3827 ± 1244
- TBXT difference between means, 95% confidence interval (Fig. s7d, day 3, P8 vs. P1): -7280 to -372.8
- SNAI1 mRNA level (RT-qPCR), mean [1]: 12.93
- TBXT mRNA level (RT-qPCR), mean [1]: 4321
- BMP4 difference between means (P8 - P1) ± SEM (Fig. s7d, day 4, P8 vs. P1): 18.59 ± 2.500
- BMP4 difference between means, 95% confidence interval (Fig. s7d, day 4, P8 vs. P1): 11.65 to 25.53
- CDH2 difference between means (P8 - P1) ± SEM (Fig. s7d, day 4, P8 vs. P1): -2.944 ± 0.7977
- CDH2 difference between means, 95% confidence interval (Fig. s7d, day 4, P8 vs. P1): -5.158 to -0.7287
- TBXT difference between means (P8 - P1) ± SEM (Fig. s7d, day 4, P8 vs. P1): -1631 ± 305.2
- TBXT difference between means, 95% confidence interval (Fig. s7d, day 4, P8 vs. P1): -2478 to -783.3
- BMP4 mRNA level (RT-qPCR), mean [2]: 31.63
- CDH2 mRNA level (RT-qPCR), mean [2]: 14.46
- TBXT mRNA level (RT-qPCR), mean [2]: 2322
- GATA4 (RT-qPCR) (Day 0, replicate 1): 0.7242
- GATA4 (RT-qPCR) (Day 0, replicate 2): 1.3517
- GATA4 (RT-qPCR) (Day 0, replicate 3): 0.9241
- GATA4 (RT-qPCR) (Day 3, replicate 1): 32.2
- GATA4 (RT-qPCR) (Day 3, replicate 2): 35.8526
- GATA4 (RT-qPCR) (Day 3, replicate 3): 22.1669
- GATA4 (RT-qPCR) (Day 5, replicate 1): 75.9376
- GATA4 (RT-qPCR) (Day 5, replicate 2): 69.9276
- GATA4 (RT-qPCR) (Day 5, replicate 3): 152.842
- SOX17 (RT-qPCR) (Day 0, replicate 1): 1.264
- SOX17 (RT-qPCR) (Day 0, replicate 2): 0.8709
- SOX17 (RT-qPCR) (Day 0, replicate 3): 0.8647
- SOX17 (RT-qPCR) (Day 3, replicate 1): 2247.1
- SOX17 (RT-qPCR) (Day 3, replicate 2): 1796.71
- SOX17 (RT-qPCR) (Day 3, replicate 3): 1610.91
- SOX17 (RT-qPCR) (Day 5, replicate 1): 1021.85
- SOX17 (RT-qPCR) (Day 5, replicate 2): 1109.15
- SOX17 (RT-qPCR) (Day 5, replicate 3): 1096.19

— paper PMC10762078, “Role of UPF1-LIN28A interaction during early differentiation of pluripotent stem cells” (Nature Communications, 2024)
